# Reference: patent US11286247B2, “Acryloyl-containing nuclear transport regulators and uses thereof” (WIGEN BIOMEDICINE TECHNOLOGY (SHANGHAI) CO., LTD., priority 2019, dated 2022)
# Read-outs that look alike come from different tables or passages of the source.
# Columns and labels:
# [1] = target: T1, CRM1 (Homo sapiens, UniProt O14980); test: Rev-GFP nuclear export assay; type: cell-based; settings: U2OS cells expressing Rev-GFP, 1 hour incubation, nuclear retention of Rev-GFP
# T1 construct: The nuclear localization of Rev protein depends on CRM1; endogenous in cells; host or cells: U2OS cells stably or transiently expressing Rev-GFP (reporter cargo)
# T1 sequence (O14980 whole entry): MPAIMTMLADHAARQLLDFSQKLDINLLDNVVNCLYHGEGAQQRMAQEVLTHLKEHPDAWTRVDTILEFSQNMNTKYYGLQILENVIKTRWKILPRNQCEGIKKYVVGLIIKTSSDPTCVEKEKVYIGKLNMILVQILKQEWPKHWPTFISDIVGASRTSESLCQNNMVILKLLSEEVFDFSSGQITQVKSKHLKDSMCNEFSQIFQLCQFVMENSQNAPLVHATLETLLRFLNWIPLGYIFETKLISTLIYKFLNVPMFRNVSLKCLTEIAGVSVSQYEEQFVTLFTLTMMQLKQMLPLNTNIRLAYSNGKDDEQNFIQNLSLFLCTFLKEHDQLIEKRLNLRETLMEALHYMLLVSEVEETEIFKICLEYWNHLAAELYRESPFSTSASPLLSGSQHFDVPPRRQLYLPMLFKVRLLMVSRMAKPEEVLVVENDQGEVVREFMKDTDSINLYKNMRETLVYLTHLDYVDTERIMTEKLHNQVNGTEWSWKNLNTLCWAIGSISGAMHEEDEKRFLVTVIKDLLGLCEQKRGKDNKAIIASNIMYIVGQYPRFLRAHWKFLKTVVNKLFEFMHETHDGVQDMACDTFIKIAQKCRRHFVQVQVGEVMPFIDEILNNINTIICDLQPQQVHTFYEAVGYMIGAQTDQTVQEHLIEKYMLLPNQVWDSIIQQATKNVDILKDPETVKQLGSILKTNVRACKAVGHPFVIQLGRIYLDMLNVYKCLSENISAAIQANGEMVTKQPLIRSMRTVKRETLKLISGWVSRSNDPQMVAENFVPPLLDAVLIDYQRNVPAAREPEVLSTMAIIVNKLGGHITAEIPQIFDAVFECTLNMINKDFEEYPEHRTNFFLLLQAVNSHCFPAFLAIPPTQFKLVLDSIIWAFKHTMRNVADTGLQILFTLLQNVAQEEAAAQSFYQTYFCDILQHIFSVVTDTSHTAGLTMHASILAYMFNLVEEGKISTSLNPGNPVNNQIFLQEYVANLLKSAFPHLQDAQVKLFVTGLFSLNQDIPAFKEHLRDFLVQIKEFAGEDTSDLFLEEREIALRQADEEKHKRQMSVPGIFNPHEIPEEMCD
# Procedure: The Rev protein from HIV contains nuclear export sequence (NES) at its C terminus and nuclear localization sequence (NLS) at its N-terminus. The nuclear localization of Rev protein depends on CRM1. U2OS cells expressing Rev protein fused with GFP (Rev-GFP) were plated in black 384 plates with clear bottom one day prior to treatment. Compounds were serially diluted 2-fold from 40 μM with DMEM in 384 plates, and then incubated with U2OS cells for an hour. Cells were fixed with 3.7% formaldehyde afterwards and nuclei were stained with Hoechst33258. The nuclear retention of Rev-GFP was examined, and IC50 was calculated.
# [2] = tested on: BxPC-3 cells (pancreatic cancer); test: Cancer cell proliferation assay, BxPC-3; type: cell-based; settings: for IC50: Homo sapiens
# Procedure: (§1) BxPC-3 cells (pancreatic cancer) and MDA-MB-231 cells (breast cancer cells) were harvested from exponential phase cultures and seeded in 96-well plates at a cell density of 2×10^4 per well. After overnight attachment, compounds including positive controls were applied to cells at five concentrations and incubated for three days. During the last four hours of incubation, 20 μL of 5 mg/mL […] was added followed by the further addition of 100 μL DMSO. The plates were subsequently shook for 10 minutes to dissolve insoluble purple formazan. Absorbance (A) at a wavelength of 570 nm was quantified. Percentage of inhibition was used for the calculation of IC50 based on the bliss method.
# [3] = tested on: MDA-MB-231 cells (breast cancer cells); test: Cancer cell proliferation assay, MDA-MB-231; type: cell-based; settings: Homo sapiens
# Procedure: as §1
# [4] = Aqueous solubility assay; type: physicochemical; settings: thermodynamic from solid, HPLC
# Procedure: 10-30 mg of compounds were dissolved in water and an HCl solution at pH1.2 respectively, and then were continuously shook for three days, followed by centrifugation at 10000 rpm/minute for five minutes. A 2 mL aliquot of supernatant was removed and diluted to 50 mL to prepare a sample solution. A control solution was prepared by dissolving 2.5 mg compounds in methanol, which was subsequently diluted with water to a final volume of 50 mL. 20 μL of control and sample solutions were injected into HPLC. The area under the curve (A) of the sample solution was compared with that of the control solution and used for determination of the concentration. Solubility was calculated by the formula below. Solubility (mg/mL)=c(control)*25*A(sample)/A(control) • C (control): concentration of the control solution • A (sample): area under the curve of the sample solution • A (control): area under the curve of the control solution
# [5] = In vivo pharmacokinetic analysis; settings: ICR, mouse; mice, 5 mg/kg, oral gavage in 0.5% CMC, plasma
# Procedure: A group of 9 ICR mice received 5 mg/kg of compound in 0.5% CMC by oral gavage. Blood was taken before treatment and at 5 min, 30 min, 1, 2, 4, 8, 12 and 24 h after treatment. 80 μL of whole blood was sampled (n=3 at each time point) via retro-orbital bleeds or cardiac puncture. The blood sample was collected into EDTA tubes and plasma were obtained by centrifugation at 1500-1600 rpm for 10 min at 4° C. After centrifugation, plasma sample was transferred to a new tube and stored at −60 to −90° C. for future analysis. Plasma concentration of (compounds was quantified by a method based on liquid chromatography coupled to tandem mass-spectrometric detections (LC/MS/MS). Noncompartmental pharmacokinetics parameters were calculated.
# [6] = tested on: BxPC-3 xenografts; test: Anti-tumor growth efficacy in pancreatic tumor BxPC3 nude mice xenograft model; type: in vivo; settings: for Tumor volume D1 / average body weight D1: D1, first day of drug treatment; for Tumor volume D1 / average body weight D1 / TGI (tumor growth inhibition) / Tumor volume D21 / average body weight D21 / RTV (relative tumor volume, Vt/V0) / T/C: oral: KPT-330 and 38 10 mg/kg tiw, 79 2.5 mg/kg tiw, 62 10 mg/kg qd; for TGI (tumor growth inhibition) / Tumor volume D21 / average body weight D21 / RTV (relative tumor volume, Vt/V0): D21; for RTV (relative tumor volume, Vt/V0): *P < 0.05 vs. vehicle group; for T/C: TRTV/CRTV X 100
# Procedure: BxPC-3 cells were cultured in 1640 medium containing 10% FBS at 37° C. and 5% CO2, 8×10^6 BxPc-3 cells were implanted subcutaneously into the left armpit of 40 nude mice. […] Compound 62 was administered orally everyday (qd) at 10 mg/kg, whereas KPT330 and compound 38 were given three times a week (tiw, Monday, Wednesday and Friday) at 10 mg/kg by oral gavage, and compound 79 were given three times a week (tiw, Monday, Wednesday and Friday) at 2.5 mg/kg by oral gavage. Tumor volume and body weight were measured every other day. Mice were sacrificed on day 21, and tumor and terminal body weight were recorded. The relative tumor volume, percent treatment/control values and tumor growth inhibition were calculated and statistics was performed.
# [7] = BXPC-3, 72 h, three days incubation, absorbance 570 nm, read-out: IC50 (μM) BxPC-3
# [8] = MDA-MB-231, 72 h, three days incubation, absorbance 570 nm, read-out: IC50 (μM) MDA-MB-231
# [9] = simulated gastric fluid, HCl solution of pH 1.2, shaken three days, read-out: Solubility, HCl solution of pH 1.2
# [10] = water, shaken three days, read-out: Solubility, Water
# [11] = BXPC-3, anti-proliferative assay, read-out: IC50 in BxPC-3 cells
# [12] = MDA-MB-231, anti-proliferative assay, read-out: IC50 in MDA-MB-231 cells
SMILES,IC50 [1],"IC50 [2, 7]","IC50 [3, 8]","solubility at 3 days [4, 9]","solubility at 3 days [4, 10]",AUC(0-t) [5],Cmax [5],MRT [5],Tmax [5],half-life [5],Tumor volume D1 [6],average body weight D1 [6],TGI (tumor growth inhibition) [6],Tumor volume D21 [6],average body weight D21 [6],T/C [6],other results
"O=C(/C=C\n1cnc(-c2cc(C(F)(F)F)cc(C(F)(F)F)c2)n1)NN1CCCC1=O [Compound 2, (Z)-3-(3-(3,5-bis(trifluoromethyl)phenyl)-1H-1,2,4-triazol-1-yl)-N-(2-oxopyrrolidin-1-yl)acrylamide]",< 1000 nM,0.269 µM,0.024 µM,14.6 µg/mL,11.3 µg/mL,2660 ng·h/mL,502 ng/mL,6.59 h,0.5 h,4.58 h,–,–,–,–,–,–,–
"CN1CCC2(CC1)CC(=O)N(NC(=O)/C=C\n1cnc(-c3cc(C(F)(F)F)cc(C(F)(F)F)c3)n1)C2 [Compound 23, (Z)-3-(3-(3,5-bis(trifluoromethyl)phenyl)-1H-1,2,4-triazol-1-yl)-N-(8-methyl-3-oxo-2,8-diazaspiro[4.5]decan-2-yl)acrylamide]",< 1000 nM,0.664 µM,0.407 µM,159 µg/mL,40.3 µg/mL,–,–,–,–,–,–,–,–,–,–,–,–
"O=C(/C=C\n1cnc(-c2cc(C(F)(F)F)cc(C(F)(F)F)c2)n1)NN1C(=O)[C@@H]2CC[C@H]1C2 [Compound 33, (Z)-3-(3-(3,5-bis(trifluoromethyl)phenyl)-1H-1,2,4-triazol-1-yl)-N-((1S,4R)-3-oxo-2-azabicyclo[2.2.1]heptan-2-yl)acrylamide]",< 1000 nM,0.156 µM,0.165 µM,–,–,5770 ng·h/mL,697 ng/mL,6.76 h,1 h,4.36 h,–,–,–,–,–,–,–
"O=C(/C=C\n1cnc(-c2cc(C(F)(F)F)cc(C(F)(F)F)c2)n1)NN1CCOCC1=O [Compound 38, (Z)-3-(3-(3,5-bis(trifluoromethyl)phenyl)-1H-1,2,4-triazol-1-yl)-N-(3-oxomorpholino)acrylamide]",< 1000 nM,0.283 µM,0.654 µM,71.4 µg/mL,50.4 µg/mL,4390 ng·h/mL,536 ng/mL,6.67 h,0.5 h,4.53 h,65.89 ± 12.63 mm^3,19.02 g,78.20%,149.62 ± 23.20 mm^3,20.80 g,36.02%,"effect on body weight (in words) ([6]; 10 mg/kg, compared to KPT-330): less effect on body weight; RTV (relative tumor volume, Vt/V0) [6]: 2.45*; anti-tumor growth activity in BxPC-3 xenograft model (in words) ([6]; Example 79 2.5 mg/kg, Example 38 10 mg/kg, compared to 10 mg/kg KPT-330): greater efficacy"
"CN1C(=O)CCN1C(=O)/C=C\n1cnc(-c2cc(C(F)(F)F)cc(C(F)(F)F)c2)n1 [Compound 62, (Z)-1-(3-(3-(3,5-bis(trifluoromethyl)phenyl)-1H-1,2,4-triazol-1-yl)acryloyl)-2-methylpyrazolidin-3-one]",< 1000 nM,0.124 µM,0.186 µM,220 µg/mL,320 µg/mL,–,–,–,–,–,65.32 ± 6.61 mm^3,20.55 g,77.35%,152.32 ± 24.78 mm^3,21.08 g,35.10%,"RTV (relative tumor volume, Vt/V0) [6]: 2.33*"
"COCCN1C(=O)CCN1C(=O)/C=C\n1cnc(-c2cc(C(F)(F)F)cc(C(F)(F)F)c2)n1 [Compound 71, (Z)-1-(3-(3-(3,5-bis(trifluoromethyl)phenyl)-1H-1,2,4-triazol-1-yl)acryloyl)-2-(2-methoxyethyl)pyrazolidin-3-one]",< 1000 nM,0.586 µM,0.245 µM,147 µg/mL,229 µg/mL,–,–,–,–,–,–,–,–,–,–,–,–

# Continued, in another order:
IC50 [1],"IC50 [2, 7]","IC50 [3, 8]","solubility at 3 days [4, 9]","solubility at 3 days [4, 10]",AUC(0-t) [5],Cmax [5],MRT [5],Tmax [5],half-life [5],SMILES,Tumor volume D1 [6],average body weight D1 [6],TGI (tumor growth inhibition) [6],Tumor volume D21 [6],average body weight D21 [6],T/C [6],other results
< 1000 nM,0.137 µM,0.119 µM,27.4 µg/mL,20.9 µg/mL,–,–,–,–,–,"O=C(/C=C\n1cnc(-c2cc(C(F)(F)F)cc(C(F)(F)F)c2)n1)N1CCC(=O)N1CC1CC1 [Compound 72, (Z)-1-(3-(3-(3,5-bis(trifluoromethyl)phenyl)-1H-1,2,4-triazol-1-yl)acryloyl)-2-(cyclopropylmethyl)pyrazolidin-3-one]",–,–,–,–,–,–,–
< 1000 nM,0.041 µM,0.021 µM,–,–,4080 ng·h/mL,389 ng/mL,6.56 h,0.5 h,2.7 h,"COC1=CC(=O)N(NC(=O)/C=C\n2cnc(-c3cc(C(F)(F)F)cc(C(F)(F)F)c3)n2)CC1 [Compound 87, (Z)-3-(3-(3,5-bis(trifluoromethyl)phenyl)-1H-1,2,4-triazol-1-yl)-N-(4-methoxy-6-oxo-3,6-dihydropyridin-1(2H)-yl)acrylamide]",–,–,–,–,–,–,"IC50 [2, 11]: 0.041 µM; folds of enhancement of activity in the anti-proliferative assay ([2]; in comparison to KPT330, BxPC-3 and MDA-MB-231 cells): 20 folds; IC50 [3, 12]: 0.021 µM"
–,–,–,349 µg/mL,156 µg/mL,–,–,–,–,–,"O=C(/C=C\n1cnc(-c2cc(C(F)(F)F)cc(C(F)(F)F)c2)n1)N1CCCN1 [Compound 90, (Z)-3-(3-(3,5-bis(trifluoromethyl)phenyl)-1H-1,2,4-triazol-1-yl)-1-(pyrazolidin-1-yl)prop-2-en-1-one]",–,–,–,–,–,–,–
–,0.705 µM,0.458 µM,6.52 µg/mL,6.25 µg/mL,2470 ng·h/mL,325 ng/mL,6.94 h,0.5 h,2.66 h,"O=C(/C=C\n1cnc(-c2cc(C(F)(F)F)cc(C(F)(F)F)c2)n1)NNc1cnccn1 [KPT-330, Selinexor, reference compound]",65.06 ± 6.45 mm^3,19.97 g,77.55%,151.31 ± 23.90 mm^3,19.97 g,35.02%,"IC50 [2, 11]: 0.705 µM; IC50 [3, 12]: 0.455 µM"
